Source: PubChem BioAssay (NCI)
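96-well plates; 48 h exposure; 5 concentrations. Endpoints by linear interpolation between flanking doses. Not reached: highest tested concentration assigned. TGI: concentration producing complete growth inhibition.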

Assays:
Assay in all cases: DTP human tumour cell line panel, 48 h
786-0 renal = test system: 786-0 renal
BT-549 breast = test system: BT-549 breast
CCRF-CEM leukemia = test system: CCRF-CEM leukemia
HCT-116 colon = test system: HCT-116 colon
LOX IMVI melanoma = test system: LOX IMVI melanoma
MALME-3M melanoma = test system: MALME-3M melanoma
MDA-MB-435 = test system: MDA-MB-435
NCI-H522 lung = test system: NCI-H522 lung
PC-3 prostate = test system: PC-3 prostate
SF-268 CNS = test system: SF-268 CNS
SR leukemia = test system: SR leukemia
SW-620 colon = test system: SW-620 colon
UACC-62 melanoma = test system: UACC-62 melanoma
SN12C renal = test system: SN12C renal

| SMILES | TGI (786-0 renal) | TGI (BT-549 breast) | TGI (CCRF-CEM leukemia) | TGI (HCT-116 colon) | TGI (LOX IMVI melanoma) | TGI (MALME-3M melanoma) | TGI (MDA-MB-435) | TGI (NCI-H522 lung) | TGI (PC-3 prostate) | TGI (SF-268 CNS) | TGI (SR leukemia) | TGI (SW-620 colon) | TGI (UACC-62 melanoma) | TGI (SN12C renal) |
| --- | --- | --- | --- | --- | --- | --- | --- | --- | --- | --- | --- | --- | --- | --- |
| CN1CCN(c2ccc3c(c2)NCC(=O)N3)CC1 | > 100 µM | > 100 µM | > 100 µM | > 100 µM | > 100 µM | > 100 µM | > 100 µM | > 100 µM | > 100 µM | > 100 µM | > 100 µM | > 100 µM | > 100 µM | – |
| COc1cc(Oc2nc3ccc(C(F)(F)F)cc3nc2-c2ccccc2)cc(OC)c1OC | 12.7 µM | 56 µM | > 100 µM | 31.4 µM | > 100 µM | > 100 µM | > 100 µM | > 100 µM | > 100 µM | 95.2 µM | > 100 µM | – | 31.7 µM | > 100 µM |
| COc1ccc2c3c1O[C@H](c1ccc(O)cc1)[C@H]3[N+](C)(C)CC2 | > 100 µM | > 100 µM | > 100 µM | > 100 µM | > 100 µM | > 100 µM | > 100 µM | > 100 µM | > 100 µM | > 100 µM | > 100 µM | > 100 µM | > 100 µM | > 100 µM |
| CN(C)CCc1c2c(nc3ccccc13)C(=O)c1cccnc1C2=O | 0.759 µM | 1.71 µM | 4.85 µM | 0.344 µM | 0.13 µM | 1.79 µM | 1.15 µM | 0.654 µM | 3.02 µM | 2.69 µM | 0.144 µM | 1.91 µM | 0.738 µM | 1.92 µM |
| Nc1nc2c(C(=O)O)c3ccc([N+](=O)[O-])cc3c(=O)n2c2ccccc12 | 48.8 µM | 95.9 µM | > 100 µM | 42.8 µM | 32.2 µM | > 100 µM | > 100 µM | 44.1 µM | 74.9 µM | 94.8 µM | > 100 µM | > 100 µM | > 100 µM | 58.1 µM |
| C=CCOc1ccc(C2C(C(=O)OC)C(=O)CC(O)(c3ccccc3)C2C(=O)OC)cc1OC (stereo not given) | 39 µM | > 100 µM | > 100 µM | 49.8 µM | > 100 µM | > 100 µM | > 100 µM | 50.5 µM | > 100 µM | 52.7 µM | > 100 µM | > 100 µM | > 100 µM | > 100 µM |
| CC(=O)OCC1OC(OCCCOP(=S)(OCCC#N)OCC2OC(n3ccc(N)nc3=O)C(OC(=O)c3ccccc3)C2OC(=O)c2ccccc2)C(OC(C)=O)C(OC(C)=O)C1OC(C)=O (stereo not given) | > 100 µM | > 100 µM | > 100 µM | > 100 µM | > 100 µM | > 100 µM | > 100 µM | > 100 µM | > 100 µM | > 100 µM | > 100 µM | > 100 µM | > 100 µM | > 100 µM |
| CCN(CC)C1Oc2cc3c(cc2C(c2cccc(OC)c2OC)C1C)OCO3 (stereo not given) | 22.7 µM | 23.6 µM | 8.48 µM | 12.8 µM | 21.6 µM | 33.5 µM | 45.6 µM | 26.3 µM | 24.4 µM | > 100 µM | 3.3 µM | 77 µM | 30.1 µM | > 100 µM |
